Test [1] concerns the target T1, BRD3-BD2 (Homo sapiens, UniProt Q15059).
T1 construct: BRD3-BD2 (306–421, Q15059); Avi tag (biotinylated in vivo; vector pQE80L-Navi); made in house; host or cells: Escherichia coli BL21(DE3)
The test can be described thus: Direct fluorescence anisotropy binding assay. The settings on record: direct fluorescence anisotropy with FAM-labelled peptide (100 nM final), 12-point 2-fold dilution of BRD3-BD2, 30 min rt, read at 25 °C; mean of at least three replicates ± SD. On the procedure:
Binding affinities for the two fluorescently tagged peptides were then determined using a direct fluorescence anisotropy assay (Fig. 2d and Supplementary Fig. S6). […] Having established that our peptides were able to bind to BRD3-BD2, we next assessed the crosslinking efficiency of the unlabelled variants. We were pleased to find that both peptides efficiently cross-linked to BRD3-BD2 upon exposure to UV light. After incubation with two equivalents of peptide and irradiation at 365 nm for only 5 min, we observed around 40% protein modification as analysed by sample separation on an SDS-PAGE gel and Coomassie staining. […]
(§1) S7. Direct fluorescence anisotropy assay […]
(§2) After 30 min, fluorescence anisotropy was measured with a CLARIOstar plate reader (BMG Labtech) using excitation at 482 nm and emissions at 530 nm at 25 °C. […] KD values were calculated using GraphPad Prism and a curve fitted using a one site - total fitting model. […]
(§3) Irradiated samples were analysed by SDS-PAGE on 4–20% Bis-Tris gels (mPAGE, Millipore).
(§4) Experiments with Bpa-P1 and Bpa-P2 were visualised by Quick Coomassie staining (Neo Biotech) with gels imaged on a Chemidoc MP Imaging System (Biorad) and quantified by Fiji. Experiments with Bpa-P1-FAM and Bpa-P2-FAM were visualised by in gel fluorescence imaging using a Typhoon FLA 9500 […]
Irradiated samples with BRD3-BD2 were further analysed by LCMS. […]

For test [2], the target named is T1, BRD3-BD2. In words: Photocrosslinking of BRD3-BD2, SDS-PAGE/Coomassie densitometry. It is filed as biochemical. The settings on record: BRD3-BD2 20 µM, peptide 40 µM (two equivalents), 365 nm for 40 min, 0 °C; SDS-PAGE, Coomassie; mean of triplicate. The protocol:
Fig. 3 Photocrosslinking of BRDs with pBpa-containing ligands. a Crosslinking between BRD3-BD2 (20 µM) and cyclic peptides (40 µM) after exposure to UV irradiation (365 nm) for variable amounts of time (0, 5, 10, 20, 40 min). Samples were separated on an SDS-PAGE gel and visualised by Coomassie staining. b Plot of percentage of cross-linked BRD3-BD2 calculated by densitometric analysis of protein bands from (a). Crosslinking efficiencies are represented as the mean of triplicate experiments ±1 standard deviation. c Crosslinking of BRD3-BD2/BRD2-BD2/BRD4-BD2/BRD3-BD1 (2 µM) by cyclic peptides (20 µM) after exposure to UV irradiation for 30 min. Samples were analysed and processed as described in (a, b). […]
as §1, §2, §3, §4

A further test has as its target BRD3-BD1. The settings on record: tight binding peptide to its target protein BRD3-BD1; cited from earlier work.
For test [3], the target named is T2, second bromodomain of BRD3 (BRD3-BD2), biotinylated (human (from the printed accession), UniProt Q15059 306-421, biotin (biotinylated; cultures induced with IPTG and 100 µM biotin)).
T2 construct: BRD3, second bromodomain, residues 306-421 of Q15059; also called wild-type BRD3-BD2; source: E. coli BL21(DE3), purified (HisTrap, Superdex 75)
T2 sequence (Q15059 306-421): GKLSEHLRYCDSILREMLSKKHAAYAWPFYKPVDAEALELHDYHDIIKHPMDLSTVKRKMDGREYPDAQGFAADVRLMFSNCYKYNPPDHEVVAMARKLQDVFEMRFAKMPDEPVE
The test can be described thus: SPR; peptide 3.2B on BRD3-BD2 cross-linked to Bpa-P1 or Bpa-P2; mean ± standard deviation of the mean. The settings on record: both partners purified. (In general: In SPR one partner is held on a chip, and binding of the other changes the refractive index at the surface.)

Where a SMILES comes first, the peptide text is derived from it. Bridges are numbered along the chain shown (N, C = ends). Where no end group is shown, it is not given here. [ ]: non-standard residue; d: D form. The star is where a group is joined. 5FAM = O=C1OC2(c3ccc(O)cc3Oc3cc(O)ccc32)c2ccc(C(=O)*)cc21; Bpa = N[C@@H](Cc1ccc(C(=O)c2ccccc2)cc1)C(=O)O

T1 sequence (Q15059 306-421): as above

The molecule `CC(C)C[C@@H]1NC(=O)[C@H](Cc2ccc(O)cc2)NC(=O)[C@H](Cc2ccc(C(=O)c3ccccc3)cc2)NC(=O)[C@H](CC(=O)O)NC(=O)[C@H](CC(=O)O)NC(=O)[C@H](CC(N)=O)NC(=O)[C@H](C(C)C)NC(=O)[C@H](CO)NC(=O)[C@H](CC(N)=O)NC(=O)[C@H](CC(C)C)NC(=O)[C@@H](Cc2ccc(O)cc2)NC(=O)CSC[C@@H](C(=O)NCC(=O)N[C@@H](CCCCNC(=O)c2ccc3c(c2)C(=O)OC32c3ccc(O)cc3Oc3cc(O)ccc32)C(N)=O)NC(=O)[C@H](Cc2ccc(O)cc2)NC(=O)[C@H](C)NC1=O` [Bpa-P1-FAM] ({CH2CO}-[dY]LNSVNDD[Bpa]YLAYCGK(5FAM)-NH2; thioether N-14) yielded a Kd on BRD3-BD2 [1] of 29 ± 10 µM.

Turning to `CC(C)C[C@@H]1NC(=O)[C@H](Cc2ccc(O)cc2)NC(=O)[C@H](Cc2ccc(C(=O)c3ccccc3)cc2)NC(=O)[C@H](CC(=O)O)NC(=O)[C@H](CC(=O)O)NC(=O)[C@H](CC(N)=O)NC(=O)[C@H](C(C)C)NC(=O)[C@H](CO)NC(=O)[C@H](CC(N)=O)NC(=O)[C@H](CC(C)C)NC(=O)[C@@H](Cc2ccc(O)cc2)NC(=O)CSC[C@@H](C(=O)NCC(N)=O)NC(=O)[C@H](Cc2ccc(O)cc2)NC(=O)[C@H](C)NC1=O` [Bpa-P1] ({CH2CO}-[dY]LNSVNDD[Bpa]YLAYCG-NH2; thioether N-14), the “protein modification (cross-linked BRD3-BD2)” value on BRD3-BD2 [2] was 96%.

`CC[C@H](C)[C@@H]1NC(=O)[C@H](Cc2ccccc2)NC(=O)[C@H](Cc2ccc(C(=O)c3ccccc3)cc2)NC(=O)[C@H]([C@@H](C)O)NC(=O)[C@H](CC(=O)O)NC(=O)CNC(=O)[C@H](CCCCN)NC(=O)[C@H](C)NC(=O)[C@H](CC(N)=O)NC(=O)[C@H](CC(C)C)NC(=O)[C@@H](Cc2ccc(O)cc2)NC(=O)CSC[C@@H](C(=O)NCC(=O)N[C@@H](CCCCNC(=O)c2ccc3c(c2)C(=O)OC32c3ccc(O)cc3Oc3cc(O)ccc32)C(N)=O)NC(=O)[C@H](Cc2ccc(O)cc2)NC(=O)[C@H]([C@@H](C)CC)NC1=O` [Bpa-P2-FAM] ({CH2CO}-[dY]LNAKGDT[Bpa]FIIYCGK(5FAM)-NH2; thioether N-14) came in with a Kd on BRD3-BD2 [1] of 14 ± 1 µM.

As for `CC[C@H](C)[C@@H]1NC(=O)[C@H](Cc2ccccc2)NC(=O)[C@H](Cc2ccc(C(=O)c3ccccc3)cc2)NC(=O)[C@H]([C@@H](C)O)NC(=O)[C@H](CC(=O)O)NC(=O)CNC(=O)[C@H](CCCCN)NC(=O)[C@H](C)NC(=O)[C@H](CC(N)=O)NC(=O)[C@H](CC(C)C)NC(=O)[C@@H](Cc2ccc(O)cc2)NC(=O)CSC[C@@H](C(=O)NCC(N)=O)NC(=O)[C@H](Cc2ccc(O)cc2)NC(=O)[C@H]([C@@H](C)CC)NC1=O` [Bpa-P2] ({CH2CO}-[dY]LNAKGDT[Bpa]FIIYCG-NH2; thioether N-14), on BRD3-BD2 [2], the “protein modification (cross-linked BRD3-BD2)” value worked out at 78%.

Turning to “cyclic-WKTIKGKTWRTKQC(S-) (sidechain bridge or staple) [3.1B, previously identified non-covalent cyclic peptide ligand of the first bromodomain of BRD3, BRD3-BD1]”, the Kd on BRD3-BD1 was 0.00049 µM.

B1: peptide 3.2B (peptide)
peptide: WSWLCKK(Ac)YNLIH
modifications: thioether (positions not given here); not fully specified (bridges); also: cyclic through C5 sulfur, other ring end not given here, bridge at 5, other end not in the chain
notes: Printed as cyclic-WSWLC(S-)KKYNLIH with the second K underlined (acetylated)
Regarding B1, the binding result in test [3] was “binds”.

A word on the Kd: it is the equilibrium constant for the complex coming apart.

Source of the values: publication PMC10232439, “Identification of photocrosslinking peptide ligands by mRNA display” (Communications Chemistry, 2023).
